# Legend:
# Type in all cases: in vivo
# Italian ryegrass [1] = assay: Test Example 3: herbicidal effects in soil treatment
# Outline: (§1)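 Seeds were sown in sterilized diluvial soil and covered with about 1.5 cm of soil. Compounds, formulated as emulsifiable concentrates and diluted with water, were sprayed evenly over the soil surface at set doses in g/a. Herbicidal effect was scored on a rating scale three weeks later.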
# water foxtail [2] = assay: as above
# Outline: as §1
# common ragweed [3] = assay: as above
# Outline: as §1
# large crabgrass [4] = assay: as above
# Outline: as §1
# common chickweed [5] = assay: as above
# Outline: as §1
# wild oat [6] = assay: as above
# Outline: as §1
# beadstraw [7] = assay: as above
# Outline: as §1
# velvetleaf [8] = assay: as above
# Outline: as §1
# barnyardgrass [9] = assay: as above
# Outline: as §1
# redroot pigweed [10] = assay: as above
# Outline: as §1
# common lambsquater [11] = assay: as above
# Outline: as §1
# giant foxtail [12] = assay: as above
# Outline: as §1
# posumbu knotweed [13] = assay: as above
# Outline: as §1
# transplanted rice = assay: Test Example 1: preemergence treatment under submerged conditions, effect on crop; settings: dose 2.52 g/a
# Outline: (§2)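 Flooded-paddy preemergence assay; EC diluted with water, surface-applied at weed seeding; doses g/a; rice transplanted at 2.5 leaves; 0–5 mortality score after 3 weeks.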
# bulrush [14] = assay: Test Example 2: herbicidal effects during the vegetation period under submerged conditions; settings: treatment during the vegetation period under submerged conditions; dose 2.52 g/a
# Outline: (§3)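 Barnyardgrass, bulrush and ducksalad were co-sown in alluvial soil flooded to 4 cm and grown in a greenhouse at 25 to 30° C. At the 1- or 2-leaf stage, water-diluted emulsifiable concentrates went onto the water surface at set doses (g/a). Herbicidal effect was scored three weeks later on a graded scale.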
# ducksalad [15] = assay: as above; settings: treatment during the vegetation period under submerged conditions; dose 2.52 g/a
# Outline: as §3
# barnyardgrass [16] = assay: as above; settings: treatment during the vegetation period under submerged conditions; dose 2.52 g/a
# Outline: as §3
# Italian ryegrass [17] = assay: Test Example 4: herbicidal effect in foliage treatment; settings: three weeks after application
# Outline: (§4)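 Sowing in sterilized diluvial soil, ~1.5 cm cover; growth 14 d, 25–30° C greenhouse; foliar spray of water-diluted EC at predetermined g/a; scoring 3 wk later on graded scale.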
# water foxtail [18] = assay: as above; settings: three weeks after application
# Outline: as §4
# common ragweed [19] = assay: as above; settings: three weeks after application
# Outline: as §4
# large crabgrass [20] = assay: as above; settings: three weeks after application
# Outline: as §4
# common chickweed [21] = assay: as above; settings: three weeks after application
# Outline: as §4
# wild oat [22] = assay: as above; settings: three weeks after application
# Outline: as §4
# beadstraw [23] = assay: as above; settings: three weeks after application
# Outline: as §4
# velvetleaf [24] = assay: as above; settings: three weeks after application
# Outline: as §4
# barnyardgrass [25] = assay: as above; settings: three weeks after application
# Outline: as §4
# redroot pigweed [26] = assay: as above; settings: three weeks after application
# Outline: as §4
# common lambsquater [27] = assay: as above; settings: three weeks after application
# Outline: as §4
# giant foxtail [28] = assay: as above; settings: three weeks after application
# Outline: as §4
# posumbu knotweed [29] = assay: as above; settings: three weeks after application
# Outline: as §4
# bulrush [30] = assay: Test Example 1: herbicidal effects in preemergence treatment under submerged conditions; settings: dose 2.52 g/a
# Outline: as §2
# ducksalad [31] = assay: as above; settings: dose 2.52 g/a
# Outline: as §2
# barnyardgrass [32] = assay: as above; settings: dose 2.52 g/a
# Outline: as §2
smiles,measurement,setting,value
CC(C)COC(=O)N(c1ccccc1CN1CC(C)OCC1=O)S(=O)(=O)C(F)(F)F (centres unmarked) [Compound I-9],"H: Italian ryegrass, herbicidal effect (evaluation scale 0-5)",Italian ryegrass [1]; dose 3.2 g/a,3 (mortality of at least 40% and less than 70%)
same,"G: water foxtail, herbicidal effect (evaluation scale 0-5)",water foxtail [2]; dose 3.2 g/a,5 (mortality of 90% or above (nearly complete death))
same,"J: common ragweed, herbicidal effect (evaluation scale 0-5)",common ragweed [3]; dose 3.2 g/a,5 (mortality of 90% or above (nearly complete death))
same,"D: large crabgrass, herbicidal effect (evaluation scale 0-5)",large crabgrass [4]; dose 3.2 g/a,5 (mortality of 90% or above (nearly complete death))
same,"N: common chickweed, herbicidal effect (evaluation scale 0-5)",common chickweed [5]; dose 3.2 g/a,5 (mortality of 90% or above (nearly complete death))
same,"F: wild oat, herbicidal effect (evaluation scale 0-5)",wild oat [6]; dose 3.2 g/a,3 (mortality of at least 40% and less than 70%)
same,"O: beadstraw, herbicidal effect (evaluation scale 0-5)",beadstraw [7]; dose 3.2 g/a,4 (mortality of at least 70% and less than 90%)
same,"I: velvetleaf, herbicidal effect (evaluation scale 0-5)",velvetleaf [8]; dose 3.2 g/a,5 (mortality of 90% or above (nearly complete death))
same,"A: barnyardgrass, herbicidal effect (evaluation scale 0-5)",barnyardgrass [9]; dose 3.2 g/a,5 (mortality of 90% or above (nearly complete death))
same,"K: redroot pigweed, herbicidal effect (evaluation scale 0-5)",redroot pigweed [10]; dose 3.2 g/a,4 (mortality of at least 70% and less than 90%)
same,"L: common lambsquater, herbicidal effect (evaluation scale 0-5)",common lambsquater [11]; dose 3.2 g/a,0 (mortality of less than 5% (almost ineffective))
same,"E: giant foxtail, herbicidal effect (evaluation scale 0-5)",giant foxtail [12]; dose 3.2 g/a,4 (mortality of at least 70% and less than 90%)
same,"M: posumbu knotweed, herbicidal effect (evaluation scale 0-5)",posumbu knotweed [13]; dose 3.2 g/a,0 (mortality of less than 5% (almost ineffective))
same,"a: transplanted rice, effect on crop (evaluation scale 0-5)",transplanted rice,0 (mortality of less than 5% (almost ineffective))
same,"B: bulrush, herbicidal effect (evaluation scale 0-5)",bulrush [14],5 (mortality of 90% or above (nearly complete death))
same,"C: ducksalad, herbicidal effect (evaluation scale 0-5)",ducksalad [15],5 (mortality of 90% or above (nearly complete death))
same,"A: barnyardgrass, herbicidal effect (evaluation scale 0-5)",barnyardgrass [16],5 (mortality of 90% or above (nearly complete death))
same,"H: Italian ryegrass, herbicidal effect",Italian ryegrass [17]; dose 3.2 g/a,3 (mortality of at least 40% and less than 70%)
same,"G: water foxtail, herbicidal effect",water foxtail [18]; dose 3.2 g/a,5 (mortality of 90% or above (nearly complete death))
same,"J: common ragweed, herbicidal effect",common ragweed [19]; dose 3.2 g/a,4 (mortality of at least 70% and less than 90%)
same,"D: large crabgrass, herbicidal effect",large crabgrass [20]; dose 3.2 g/a,5 (mortality of 90% or above (nearly complete death))
same,"N: common chickweed, herbicidal effect",common chickweed [21]; dose 3.2 g/a,3 (mortality of at least 40% and less than 70%)
same,"F: wild oat, herbicidal effect",wild oat [22]; dose 3.2 g/a,0 (mortality of less than 5% (almost ineffective))
same,"O: beadstraw, herbicidal effect",beadstraw [23]; dose 3.2 g/a,4 (mortality of at least 70% and less than 90%)
same,"I: velvetleaf, herbicidal effect",velvetleaf [24]; dose 3.2 g/a,5 (mortality of 90% or above (nearly complete death))
same,"A: barnyardgrass, herbicidal effect",barnyardgrass [25]; dose 3.2 g/a,5 (mortality of 90% or above (nearly complete death))
same,"K: redroot pigweed, herbicidal effect",redroot pigweed [26]; dose 3.2 g/a,2 (mortality of at least 20% and less than 40%)
same,"L: common lambsquater, herbicidal effect",common lambsquater [27]; dose 3.2 g/a,0 (mortality of less than 5% (almost ineffective))
same,"E: giant foxtail, herbicidal effect",giant foxtail [28]; dose 3.2 g/a,3 (mortality of at least 40% and less than 70%)
same,"M: posumbu knotweed, herbicidal effect",posumbu knotweed [29]; dose 3.2 g/a,0 (mortality of less than 5% (almost ineffective))
same,"B: bulrush, herbicidal effect (evaluation scale 0-5)",bulrush [30],5 (mortality of 90% or above (nearly complete death))
same,"C: ducksalad, herbicidal effect (evaluation scale 0-5)",ducksalad [31],5 (mortality of 90% or above (nearly complete death))
same,"A: barnyardgrass, herbicidal effect (evaluation scale 0-5)",barnyardgrass [32],5 (mortality of 90% or above (nearly complete death))
"CCOC(=O)N(c1ccccc1CN1CCSCC1=O)S(=O)(=O)C(F)(F)F [Compound I-18, 4-[2-(N-ethoxycarbonyl-N-trifluoromethanesulfonyl)aminobenzyl]-1,4-thiazinan-3-one]","H: Italian ryegrass, herbicidal effect (evaluation scale 0-5)",Italian ryegrass [1]; dose 6.3 g/a,4 (mortality of at least 70% and less than 90%)
same,"G: water foxtail, herbicidal effect (evaluation scale 0-5)",water foxtail [2]; dose 6.3 g/a,5 (mortality of 90% or above (nearly complete death))
same,"J: common ragweed, herbicidal effect (evaluation scale 0-5)",common ragweed [3]; dose 6.3 g/a,4 (mortality of at least 70% and less than 90%)
same,"D: large crabgrass, herbicidal effect (evaluation scale 0-5)",large crabgrass [4]; dose 6.3 g/a,4 (mortality of at least 70% and less than 90%)
same,"N: common chickweed, herbicidal effect (evaluation scale 0-5)",common chickweed [5]; dose 6.3 g/a,4 (mortality of at least 70% and less than 90%)
same,"F: wild oat, herbicidal effect (evaluation scale 0-5)",wild oat [6]; dose 6.3 g/a,0 (mortality of less than 5% (almost ineffective))
same,"O: beadstraw, herbicidal effect (evaluation scale 0-5)",beadstraw [7]; dose 6.3 g/a,3 (mortality of at least 40% and less than 70%)
same,"I: velvetleaf, herbicidal effect (evaluation scale 0-5)",velvetleaf [8]; dose 6.3 g/a,1 (mortality of at least 5% and less than 20%)
same,"A: barnyardgrass, herbicidal effect (evaluation scale 0-5)",barnyardgrass [9]; dose 6.3 g/a,5 (mortality of 90% or above (nearly complete death))
same,"K: redroot pigweed, herbicidal effect (evaluation scale 0-5)",redroot pigweed [10]; dose 6.3 g/a,4 (mortality of at least 70% and less than 90%)
same,"L: common lambsquater, herbicidal effect (evaluation scale 0-5)",common lambsquater [11]; dose 6.3 g/a,5 (mortality of 90% or above (nearly complete death))
same,"E: giant foxtail, herbicidal effect (evaluation scale 0-5)",giant foxtail [12]; dose 6.3 g/a,5 (mortality of 90% or above (nearly complete death))
same,"M: posumbu knotweed, herbicidal effect (evaluation scale 0-5)",posumbu knotweed [13]; dose 6.3 g/a,3 (mortality of at least 40% and less than 70%)
same,"a: transplanted rice, effect on crop (evaluation scale 0-5)",transplanted rice,0 (mortality of less than 5% (almost ineffective))
same,"B: bulrush, herbicidal effect (evaluation scale 0-5)",bulrush [14],5 (mortality of 90% or above (nearly complete death))
same,"C: ducksalad, herbicidal effect (evaluation scale 0-5)",ducksalad [15],4 (mortality of at least 70% and less than 90%)
same,"H: Italian ryegrass, herbicidal effect",Italian ryegrass [17]; dose 6.3 g/a,4 (mortality of at least 70% and less than 90%)
same,"G: water foxtail, herbicidal effect",water foxtail [18]; dose 6.3 g/a,5 (mortality of 90% or above (nearly complete death))
same,"J: common ragweed, herbicidal effect",common ragweed [19]; dose 6.3 g/a,3 (mortality of at least 40% and less than 70%)
same,"D: large crabgrass, herbicidal effect",large crabgrass [20]; dose 6.3 g/a,4 (mortality of at least 70% and less than 90%)
same,"N: common chickweed, herbicidal effect",common chickweed [21]; dose 6.3 g/a,4 (mortality of at least 70% and less than 90%)
same,"F: wild oat, herbicidal effect",wild oat [22]; dose 6.3 g/a,3 (mortality of at least 40% and less than 70%)
same,"O: beadstraw, herbicidal effect",beadstraw [23]; dose 6.3 g/a,4 (mortality of at least 70% and less than 90%)
same,"I: velvetleaf, herbicidal effect",velvetleaf [24]; dose 6.3 g/a,4 (mortality of at least 70% and less than 90%)
same,"A: barnyardgrass, herbicidal effect",barnyardgrass [25]; dose 6.3 g/a,5 (mortality of 90% or above (nearly complete death))
same,"K: redroot pigweed, herbicidal effect",redroot pigweed [26]; dose 6.3 g/a,4 (mortality of at least 70% and less than 90%)
same,"L: common lambsquater, herbicidal effect",common lambsquater [27]; dose 6.3 g/a,4 (mortality of at least 70% and less than 90%)
same,"E: giant foxtail, herbicidal effect",giant foxtail [28]; dose 6.3 g/a,4 (mortality of at least 70% and less than 90%)
same,"M: posumbu knotweed, herbicidal effect",posumbu knotweed [29]; dose 6.3 g/a,3 (mortality of at least 40% and less than 70%)
same,"B: bulrush, herbicidal effect (evaluation scale 0-5)",bulrush [30],5 (mortality of 90% or above (nearly complete death))
same,"C: ducksalad, herbicidal effect (evaluation scale 0-5)",ducksalad [31],5 (mortality of 90% or above (nearly complete death))
same,"A: barnyardgrass, herbicidal effect (evaluation scale 0-5)",barnyardgrass [32],5 (mortality of 90% or above (nearly complete death))
